From paper PMC12846378 (Viruses, 2026)
“And” between values parts separate entries of the source, which are not always exact repeats. Equal entries are not always repeated. Where two headings read alike, the source gives them in different places.

Columns and labels:
[1] = system: HEK293T cells
[2] = target: LCMV vRNP (Mammarenavirus choriomeningitidis (LCMV), UniProt P14240); assay type: cell-based
[3] = system: LCMV Z; assay type: cell-based
[4] = system: LCMV NP RNA; assay type: cell-based
[5] = system: rJUNV/GFP-P2A-NP; assay: organism not typed; assay type: cell-based
[6] = system: rLCMV/GFP-P2A-NP; assay type: cell-based
[7] = system: A549 cells
[8] = system: LASV vRNP; assay type: cell-based
[9] = system: rLCMV/GFP-P2A-NP; assay type: cell-based; remark: listed apart in the source
[10] = system: rLCMV/GFP-P2A-NP; assay type: cell-based; remark: listed apart in the source
[11] = system: Vero E6 cells
[12] = system: rJUNV/GFP-P2A-NP; assay: organism not typed; assay type: cell-based; remark: listed apart in the source
[13] = system: A549 cells; remark: listed apart in the source
[14] = system: A549 cells; remark: listed apart in the source
[15] = system: HEK293T cells; remark: listed apart in the source
[16] = in vitro; conditions: African green monkey
[17] = system: rLCMV/GFP-P2A-NP; assay type: cell-based; remark: listed apart in the source
[18] = system: rLCMV/GFP-P2A-NP; assay: organism not typed; assay type: cell-based
[19] = system: ISG15; assay type: cell-based
[20] = system: MX1; assay type: cell-based

CNC1=Nc2ccc(Cl)cc2C(c2ccc[nH]2)=NC1 [RO, Ro-24-7429]
CC50 [1]: > 20 µM | inhibition of LCMV MG activity [2]: significantly less efficient | effect on Z budding activity [3]: did not affect | effect on virus RNA replication and transcription [4]: inhibited to a similar degree both virus replication and transcription | antiviral activity against JUNV [5]: less efficient | EC50 ([6]; read-out: EC50): 0.889 µM and 0.89 µM | CC50 [7]: > 30 µM | inhibition of LASV MG activity [8]: significantly less efficient | production of infectious virus (titers in CCS) [9]: reduced efficacy at 1 µM compared to 5 µM | reduction in infectivity (GFP signal) [10]: ≥ 80% | CC50 [11]: > 30 µM | antiviral activity against JUNV [12]: less efficient | EC50 ([12]; read-out: EC50): 15.3 µM | reduction in cell viability / cytotoxicity [13]: ≤ 20% | CC50 [14]: > 20 µM | CC50 [15]: > 1 µM

O=C(/C=C\n1cnc(-c2cc(C(F)(F)F)cc(C(F)(F)F)c2)n1)NNc1cnccn1 [SE, Selinexor]
production of infectious virus (titers in CCS) [9]: potent inhibitory effect on LCMV multiplication

O=C(/C=C\n1cnc(-c2cc(C(F)(F)F)cc(C(F)(F)F)c2)n1)NNc1ccccn1 [VE, verdinexor]
CC50 [16]: > 30 µM | inhibition of LCMV MG activity [2]: potently inhibited | effect on Z budding activity [3]: significant inhibitory effect | effect on virus RNA replication and transcription [4]: inhibited to a similar degree both virus replication and transcription | antiviral activity against JUNV [5]: potent antiviral activity | EC50 ([5]; A549): 0.036 µM | EC50 [6]: 0.07 µM | inhibition of LASV MG activity [8]: potently inhibited | reduction in virus peak titers [9]: ~2 log | effect on LCMV multiplication in MAVS-KO A549 cells [17]: strong dose-dependent inhibitory effect | reduction in infectivity (GFP signal) [10]: ≥ 80% | inhibition at 0.3334 µM [18]: 77.6% | inhibition at 1 µM [18]: 97.05 ± 0.41% | EC50 [12]: 0.24 µM | antiviral activity against JUNV [12]: potent antiviral activity | EC50 ([12]; Vero C1008): 0.239 µM | reduction in cell viability / cytotoxicity ([13]; human): ≤ 20% | expression level of ISG15 [19]: reduced expression levels | expression level of MX1 [20]: reduced expression levels
